Experimental data taken from the supplement of paper PMC11061612.

How the values were obtained:
[1] = tested on: EB2 (Burkitt's Lymphoma); assay: Bliss excess, mean over the matrix (fraction); higher = more synergy
Summary of the method: (§1)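 Bliss excess equals the observed combination effect minus the expected value EA + EB − EA·EB, where EA and EB are the effects of each agent alone. Combination Emax is the second-highest inhibition within the matrix. Inhibition was scaled from CellTiter-Glo 2.0 luminescence, with 0 set by vehicle wells and 1 by blank wells, after 72 hours of two-drug dosing of cells plated in 1536-well plates.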

[2] = tested on: MHH-ES-1 (Ewing's Sarcoma); assay: as above
Summary of the method: as §1

[3] = tested on: KYSE-220 (Esophageal Squamous Cell Carcinoma); assay: as above
Summary of the method: as §1

[4] = tested on: NCI-H841 (Small Cell Lung Carcinoma); assay: as above
Summary of the method: as §1

[5] = tested on: HCC1395 (Breast Carcinoma); assay: as above
Summary of the method: as §1

[6] = tested on: MKN1 (Gastric Carcinoma); assay: as above
Summary of the method: as §1

[7] = tested on: WM1552C (Melanoma); assay: as above
Summary of the method: as §1

[8] = tested on: NCI-H841 (Small Cell Lung Carcinoma); assay: combination Emax (second highest fraction inhibited in the dose matrix, 72 h); higher = more inhibition; extreme values may be limits of the assay
Summary of the method: as §1

[9] = tested on: MKN1 (Gastric Carcinoma); assay: as above
Summary of the method: as §1

[10] = tested on: DU-4475 (Breast Carcinoma); assay: Bliss excess, mean over the matrix (fraction); higher = more synergy
Summary of the method: as §1

[11] = tested on: HCC1428 (Breast Carcinoma); assay: as above
Summary of the method: as §1

| Structure (SMILES) | Bliss excess [1] | Bliss excess [2] | Bliss excess [3] | Bliss excess [4] | Bliss excess [5] | Bliss excess [6] | Bliss excess [7] | combination Emax [8] | combination Emax [9] | Bliss excess [10] | Bliss excess [11] |
| --- | --- | --- | --- | --- | --- | --- | --- | --- | --- | --- | --- |
| O=C(c1cc(Cc2n[nH]c(=O)c3ccccc23)ccc1F)N1CCN(C(=O)C2CC2)CC1 [Olaparib] + CN(CC[C@H](CSC1=CC=CC=C1)NC2=C(C=C(C=C2)S(=O)(=O)NC(=O)C3=CC=C(C=C3)N4CCC(CC4)[C@H](C5=CC=CC=C5C6=CC=C(C=C6)Cl)O)S(=O)(=O)C(F)(F)F)CCO [AZD4320] (first compound max 10 µM, 7x7, partner max 1 µM) | -0.0537 | 0.0657 | -0.0169 | -0.0526 | -0.0335 | -0.0238 | 0.0005 | 0.0513 | 0.165 |  |  |
| CN(CCO)CC[C@H](CSc1ccccc1)Nc1ccc(S(=O)(=O)NC(=O)c2ccc(N3CCC([C@@H](O)c4ccccc4-c4ccc(Cl)cc4)CC3)cc2)cc1S(=O)(=O)C(F)(F)F [AZD4320] + CS(=O)(=O)CCNCc1ccc(-c2ccc3ncnc(Nc4ccc(OCc5cccc(F)c5)c(Cl)c4)c3c2)o1 [Lapatinib] (first compound max 1 µM, 7x7, partner max 10 µM) | -0.104 | 0.136 | 0.0087 | -0.0037 | -0.0261 | 0.046 | 0.0285 | 0.237 | 0.888 |  |  |
| O=C(c1cc(Cc2n[nH]c(=O)c3ccccc23)ccc1F)N1CCN(C(=O)C2CC2)CC1 [Olaparib] + COc1nnc2ccc(N3CCC(c4ccc(OCCN5CCN(C)C(=O)[C@H]5C)cc4)CC3)nn12 [AZD5153] (first compound max 10 µM, 7x7, partner max 1 µM) | -0.0329 | 0.0286 | -0.045 | -0.0593 | -0.0658 | -0.0577 | -0.0553 | 0.236 | 0.631 |  |  |
| Cc1nc(-c2cn3c(n2)-c2ccc(-c4cnn(C(C)(C)C(N)=O)c4)cc2OCC3)n(C(C)C)n1 [Taselisib] + O=C(Nc1ccc2[nH]nc(-c3ccncc3)c2c1)[C@@H]1CCN(CC(=O)N2CCN(c3ccc(-c4ncccn4)cc3)CC2)C1 [SCH772984] (first compound max 10 µM, 7x7, partner max 5 µM) | 0.0182 | 0.102 | 0.116 | 0.0606 | 0.0294 | 0.0698 | 0.0205 | 0.439 | 0.838 |  |  |
| C=CCn1c(=O)c2cnc(Nc3ccc(N4CCN(C)CC4)cc3)nc2n1-c1cccc(C(C)(C)O)n1 [AZD1775] + Nc1ccn([C@@H]2O[C@H](CO)[C@@H](O)C2(F)F)c(=O)n1 [Gemcitabine] (first compound max 1 µM, partner max 0.3 µM) | 0.0066 | 0.0359 | 0.0029 | 0.0425 | 0.0294 | 0.0171 | -0.0467 | 0.726 | 0.927 |  |  |
| Cc1c2c(nn1C)CSCc1cc(n(C)n1)CSc1cc(c3ccccc3c1)OCCCc1c(C(=O)O)n(C)c3c-2c(Cl)ccc13 [AZD5991] + CS(=O)(=O)CCNCc1ccc(-c2ccc3ncnc(Nc4ccc(OCc5cccc(F)c5)c(Cl)c4)c3c2)o1 [Lapatinib] (first compound max 1 µM, 7x7, partner max 10 µM) | -0.0287 | 0.0286 | 0.0157 | -0.0161 | -0.0227 | -0.0016 | 0.0199 | 0.3 | 0.53 |  |  |
| CS(=O)(=O)CCNCc1ccc(-c2ccc3ncnc(Nc4ccc(OCc5cccc(F)c5)c(Cl)c4)c3c2)o1 [Lapatinib] + NC1(c2ccc(-c3nc4ccn5c(=O)[nH]nc5c4cc3-c3ccccc3)cc2)CCC1 [MK-2206] (first compound max 10 µM, 7x7, partner max 10 µM) | -0.0348 | 0.0191 | -0.0099 | -0.0246 | -0.0376 | 0.0099 | -0.0297 | 0.17 | 0.925 | 0.0428 | 0.0023 |
| C=CCn1c(=O)c2cnc(Nc3ccc(N4CCN(C)CC4)cc3)nc2n1-c1cccc(C(C)(C)O)n1 [AZD1775] + CCc1c2c(nc3ccc(O)cc13)-c1cc3c(c(=O)n1C2)COC(=O)[C@]3(O)CC [SN-38] (first compound max 1 µM, partner max 0.3 µM) | -0.0507 | -0.0073 | -0.0563 | -0.0421 | -0.0322 | -0.0056 | -0.0628 | 0.66 | 0.869 |  |  |
| Cc1c2c(nn1C)CSCc1cc(n(C)n1)CSc1cc(c3ccccc3c1)OCCCc1c(C(=O)O)n(C)c3c-2c(Cl)ccc13 [AZD5991] + CC(=O)O[C@H]1C(=O)[C@@]2(C)[C@H]([C@H](OC(=O)c3ccccc3)[C@]3(O)C[C@H](OC(=O)[C@H](O)[C@@H](NC(=O)c4ccccc4)c4ccccc4)C(C)=C1C3(C)C)[C@]1(OC(C)=O)CO[C@@H]1C[C@@H]2O [Paclitaxel] (first compound max 1 µM, 7x7, partner max 3 µM) | -0.083 | -0.009 | -0.006 | 0.0663 | 0.0501 | -0.103 | 0.0097 | 0.973 | 0.824 |  |  |
| O=C(c1cc(Cc2n[nH]c(=O)c3ccccc23)ccc1F)N1CCN(C(=O)C2CC2)CC1 [Olaparib] + CC1(C)CCC(CN2CCN(c3ccc(C(=O)NS(=O)(=O)c4ccc(NCC5CCOCC5)c([N+](=O)[O-])c4)c(Oc4cnc5[nH]ccc5c4)c3)CC2)=C(c2ccc(Cl)cc2)C1 [Venetoclax] (first compound max 10 µM, 7x7, partner max 1 µM) | -0.0324 | 0.0283 | -0.0369 | -0.057 | -0.0396 | -0.0437 | -0.0325 | 0.0548 | 0.122 |  |  |
| O=C(c1cc(Cc2n[nH]c(=O)c3ccccc23)ccc1F)N1CCN(C(=O)C2CC2)CC1 [Olaparib] + Cc1c2c(nn1C)CSCc1cc(n(C)n1)CSc1cc(c3ccccc3c1)OCCCc1c(C(=O)O)n(C)c3c-2c(Cl)ccc13 [AZD5991] (first compound max 10 µM, 7x7, partner max 1 µM) | -0.0266 | 0.0108 | -0.0573 | -0.0522 | -0.016 | -0.0332 | 0.0329 | 0.126 | 0.118 |  |  |
